In PubChem BioAssay AID342 (DTP/NCI, 2004):
Where “and” joins values, the source holds several entries; their conditions need not be identical. Identical values can stand only once. Square brackets hold non-standard residues; d marks the D form. Peptide text beside a SMILES is read from it. ξ: configuration not given here. Ac5c = NC1(C(=O)O)CCCC1; ξS = NC(CO)C(=O)O

Test system: Swiss mice, Sarcoma 180 sc, mean tumor weight T/C
Assay: NCI In Vivo Anticancer Drug Screen. Data for tumor model Sarcoma 180 (subcutaneous) in Swiss mice
Details: endpoint: mean tumor weight, higher = larger tumour
How it was run: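 Antitumor activity is assessed in mice with transplantable tumors. Treated (T) and vehicle control (C) groups are compared on survival or tumor size.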

[1] = dose: 100.0 mg/kg/injection, schedule: Q01DX007 (ip), vehicle: saline
[2] = dose: 6.2 mg/kg/injection, schedule: Q01DX007 (ip), vehicle: carboxymethylcellulose (CMC)

With `CC(=O)N[C@H]1CC[C@H]2[C@@H]3CCC4=CC(=O)CC[C@]4(C)[C@H]3CC[C@]12C` the T/C (dose: 5.0 mg/kg/injection, schedule: Q#A X014 (sc), vehicle: steriod suspending solution) was 105 % of control, the T/C (dose: 50.0 mg/kg/injection, schedule: Q#A X014 (sc), vehicle: steriod suspending solution) was 94 % of control and the T/C (dose: 100.0 mg/kg/injection, schedule: Q#A X014 (sc), vehicle: steriod suspending solution) was 78 % of control.

For `CC(=O)[C@H]1CC[C@H]2[C@@H]3CCC4=CC(=O)CC[C@]4(C)[C@H]3CC[C@]12C`, the T/C (dose: 125.0 mg/kg/injection, schedule: Q01DX007 (sc), vehicle: steriod suspending solution) was 89 % of control, the T/C (dose: 250.0 mg/kg/injection, schedule: Q01DX007 (sc), vehicle: steriod suspending solution) was 76 % of control and the T/C (dose: 500.0 mg/kg/injection, schedule: Q01DX007 (sc), vehicle: steriod suspending solution) was 61 % of control. For the same compound, the T/C (dose: 1000.0 mg/kg/injection, schedule: Q01DX007 (sc), vehicle: steriod suspending solution) was 79 % of control.

`C=CN1CCCC1=O` was tested, and the T/C (dose: 93.0 mg/kg/injection, schedule: Q01DX007 (ip), vehicle: saline) was 106 % of control, the T/C (dose: 98.0 mg/kg/injection, schedule: Q01DX007 (ip), vehicle: saline) was 70 % of control and the T/C [1] was 57 % of control. For the same compound, the T/C (dose: 124.0 mg/kg/injection, schedule: Q01DX007 (ip), vehicle: saline) was 80 % of control, the T/C (dose: 148.0 mg/kg/injection, schedule: Q01DX007 (ip), vehicle: saline) was 65 % of control and the T/C (dose: 150.0 mg/kg/injection, schedule: Q01DX007 (ip), vehicle: saline) was 78 % of control. For the same compound, the T/C (dose: 166.0 mg/kg/injection, schedule: Q01DX007 (ip), vehicle: saline) was 84 % of control, the T/C (dose: 500.0 mg/kg/injection, schedule: Q01DX007 (ip), vehicle: saline) was 9 % of control and the T/C (dose: 750.0 mg/kg/injection, schedule: Q01DX007 (ip), vehicle: saline) was 20 % of control.

For `O=C(NP(=O)(N1CC1)N1CC1)OCc1ccccc1`, the T/C (dose: 1.5 mg/kg/injection, schedule: Q#A X014 (ip), vehicle: saline) was 82 % of control, the T/C (dose: 3.0 mg/kg/injection, schedule: Q#A X014 (ip), vehicle: saline) was 81 % of control and the T/C (dose: 6.0 mg/kg/injection, schedule: Q#A X014 (ip), vehicle: saline) was 36 % of control. For the same compound, the T/C (dose: 12.0 mg/kg/injection, schedule: Q#A X014 (ip), vehicle: saline) was 1 % of control.

`CCOC(=O)C(CO)NC(=O)C1(NC(C)=O)CCCC1` (centres undefined) (Ac-[Ac5c]-[ξS]-OEt) was tested, and the T/C (dose: 66.0 mg/kg/injection, schedule: Q01DX007 (ip), vehicle: water) was 97 % of control, the T/C (dose: 100.0 mg/kg/injection, schedule: Q01DX007 (ip), vehicle: water) was 94 % of control and the T/C (dose: 150.0 mg/kg/injection, schedule: Q01DX007 (ip), vehicle: water) was 83 % of control. The T/C (dose: 225.0 mg/kg/injection, schedule: Q01DX007 (ip), vehicle: water) was 74 % of control.

For `[N-]=[N+]=CC(=O)NCC(=O)NN`, the T/C (dose: 400.0 mg/kg/injection, schedule: Q01DX007 (ip), vehicle: water) was 45 % of control, the T/C (dose: 450.0 mg/kg/injection, schedule: Q01DX007 (ip), vehicle: other) was 43 % of control and the T/C (dose: 500.0 mg/kg/injection, schedule: Q01DX007 (ip), vehicle: other) was 50 % of control. The T/C (dose: 600.0 mg/kg/injection, schedule: Q01DX007 (ip), vehicle: water) was 34 % of control.

In the case of `CC(C)(C)C(=O)/C=C/c1ccc([N+](=O)[O-])cc1`, the T/C (dose: 50.0 mg/kg/injection, schedule: Q#A X014 (ip), vehicle: methylcellulose (MC)) was 92 % of control and the T/C (dose: 187.5 mg/kg/injection, schedule: Q#A X014 (ip), vehicle: methylcellulose (MC)) was 70 % of control.

With `CCCC(=O)OCC1OC(n2cnc3c(=S)nc(N)[nH]c32)C(OC(=O)CCC)C1OC(=O)CCC` (centres undefined) the T/C (dose: 4.1 mg/kg/injection, schedule: Q01DX007 (ip), vehicle: carboxymethylcellulose (CMC)) was 52 % of control, the T/C [2] was 72 % of control and the T/C (dose: 9.3 mg/kg/injection, schedule: Q01DX007 (ip), vehicle: carboxymethylcellulose (CMC)) was 45 % of control. The T/C (dose: 47.0 mg/kg/injection, schedule: Q01DX007 (ip), vehicle: carboxymethylcellulose (CMC)) was 39 % of control.

`CSc1nc(C)c(Br)c(Sc2nc(N)nc3nc[nH]c23)n1` was tested, and the T/C (dose: 4.0 mg/kg/injection, schedule: Q01DX007 (ip), vehicle: carboxymethylcellulose (CMC)) was 91 % of control, the T/C (dose: 5.0 mg/kg/injection, schedule: Q01DX007 (ip), vehicle: carboxymethylcellulose (CMC)) was 84 % of control and the T/C (dose: 5.5 mg/kg/injection, schedule: Q#A X014 (ip), vehicle: carboxymethylcellulose (CMC)) was 43 % of control. For the same compound, the T/C (dose: 5.5 mg/kg/injection, schedule: Q#A X014 (ip), vehicle: methylcellulose (MC)) was 24 % of control, the T/C (dose: 6.0 mg/kg/injection, schedule: Q01DX007 (ip), vehicle: carboxymethylcellulose (CMC)) was 90 % of control and the T/C [2] was 77 % of control. For the same compound, the T/C (dose: 7.0 mg/kg/injection, schedule: Q01DX007 (ip), vehicle: carboxymethylcellulose (CMC)) was 66 % of control, the T/C (dose: 8.5 mg/kg/injection, schedule: Q#A X014 (ip), vehicle: carboxymethylcellulose (CMC)) was 33 % of control and the T/C (dose: 8.5 mg/kg/injection, schedule: Q#A X014 (ip), vehicle: methylcellulose (MC)) was 57 % of control. For the same compound, the T/C (dose: 11.0 mg/kg/injection, schedule: Q01DX007 (ip), vehicle: carboxymethylcellulose (CMC)) was 74 % of control, the T/C (dose: 12.5 mg/kg/injection, schedule: Q01DX007 (ip), vehicle: carboxymethylcellulose (CMC)) was 69 % of control and the T/C (dose: 12.5 mg/kg/injection, schedule: Q#A X014 (ip), vehicle: carboxymethylcellulose (CMC)) was 24 % of control. The T/C (dose: 12.5 mg/kg/injection, schedule: Q#A X014 (ip), vehicle: methylcellulose (MC)) was 16 % of control, the T/C (dose: 17.0 mg/kg/injection, schedule: Q01DX007 (ip), vehicle: carboxymethylcellulose (CMC)) was 31 % of control and the T/C (dose: 18.5 mg/kg/injection, schedule: Q#A X014 (ip), vehicle: carboxymethylcellulose (CMC)) was 18 % of control. The T/C (dose: 18.5 mg/kg/injection, schedule: Q#A X014 (ip), vehicle: methylcellulose (MC)) was 7 % of control, the T/C (dose: 25.0 mg/kg/injection, schedule: Q01DX007 (ip), vehicle: carboxymethylcellulose (CMC)) was 20 % of control and the T/C (dose: 37.0 mg/kg/injection, schedule: Q01DX007 (ip), vehicle: carboxymethylcellulose (CMC)) was 22 % of control. The T/C (dose: 40.0 mg/kg/injection, schedule: Q01DX007 (ip), vehicle: carboxymethylcellulose (CMC)) was 52 % of control and the T/C (dose: 60.0 mg/kg/injection, schedule: Q01DX007 (ip), vehicle: carboxymethylcellulose (CMC)) was 46 % of control.

With `CC(=O)C1(/C(C)=C/C2C(C=O)=CC(C)(C)C2O)CC1` (centres undefined) the T/C (dose: 0.25 mg/kg/injection, schedule: Q01DX007 (ip), vehicle: saline) was 106 % of control, the T/C (dose: 0.5 mg/kg/injection, schedule: Q01DX007 (ip), vehicle: saline) was 59 % of control and the T/C (dose: 1.0 mg/kg/injection, schedule: Q01DX007 (ip), vehicle: saline) was 65 % of control. The T/C (dose: 2.0 mg/kg/injection, schedule: Q01DX007 (ip), vehicle: saline) was 67 % of control, the T/C (dose: 8.0 mg/kg/injection, schedule: Q01DX007 (ip), vehicle: saline) was 75 % of control and the T/C (dose: 16.0 mg/kg/injection, schedule: Q01DX007 (ip), vehicle: saline) was 94 % of control and 102 % of control. For the same compound, the T/C (dose: 32.0 mg/kg/injection, schedule: Q01DX007 (ip), vehicle: saline) was 99 % of control, the T/C (dose: 64.0 mg/kg/injection, schedule: Q01DX007 (ip), vehicle: saline) was 77 % of control and the T/C (dose: 128.0 mg/kg/injection, schedule: Q01DX007 (ip), vehicle: saline) was 78 % of control.

For `COc1ccc(-c2cc(=O)c3c(O)c(OC)c(O)cc3o2)cc1`, the T/C (dose: 25.0 mg/kg/injection, schedule: Q01DX007 (ip), vehicle: saline) was 73 % of control, the T/C (dose: 50.0 mg/kg/injection, schedule: Q01DX007 (ip), vehicle: saline) was 79 % of control and the T/C [1] was 85 % of control.

With `Cc1ncc(CO)c(C)c1O` the T/C (dose: 25.25 mg/kg/injection, schedule: Q01DX007 (ip), vehicle: carboxymethylcellulose (CMC)) was 102 % of control, the T/C (dose: 27.5 mg/kg/injection, schedule: Q01DX007 (ip), vehicle: carboxymethylcellulose (CMC)) was 77 % of control and the T/C (dose: 50.5 mg/kg/injection, schedule: Q01DX007 (ip), vehicle: carboxymethylcellulose (CMC)) was 102 % of control. The T/C (dose: 55.0 mg/kg/injection, schedule: Q01DX007 (ip), vehicle: carboxymethylcellulose (CMC)) was 54 % of control, the T/C (dose: 101.0 mg/kg/injection, schedule: Q01DX007 (ip), vehicle: carboxymethylcellulose (CMC)) was 84 % of control and the T/C (dose: 110.0 mg/kg/injection, schedule: Q01DX007 (ip), vehicle: carboxymethylcellulose (CMC)) was 53 % of control. The T/C (dose: 202.0 mg/kg/injection, schedule: Q01DX007 (ip), vehicle: carboxymethylcellulose (CMC)) was 71 % of control.

`O=C(O)c1cccc2c3c(cc([N+](=O)[O-])c12)CCCC3` was tested, and the T/C (dose: 1.5 mg/kg/injection, schedule: Q01DX007 (ip), vehicle: carboxymethylcellulose (CMC)) was 157 % of control.
